Activity calls are given as the source filed them.
How the values were obtained:
[1] = biological target: Glyceraldehyde-3-phosphate dehydrogenase (Homo sapiens, UniProt P04406)
[2] = biological target: T1, Alkaline phosphatase, tissue-nonspecific isozyme (Homo sapiens, UniProt P05186); assay: potency against alkaline phosphatase TNAP – biochemical, luminescent, dose response, SAR follow-up (AID 1056)
T1 sequence (P05186 whole entry): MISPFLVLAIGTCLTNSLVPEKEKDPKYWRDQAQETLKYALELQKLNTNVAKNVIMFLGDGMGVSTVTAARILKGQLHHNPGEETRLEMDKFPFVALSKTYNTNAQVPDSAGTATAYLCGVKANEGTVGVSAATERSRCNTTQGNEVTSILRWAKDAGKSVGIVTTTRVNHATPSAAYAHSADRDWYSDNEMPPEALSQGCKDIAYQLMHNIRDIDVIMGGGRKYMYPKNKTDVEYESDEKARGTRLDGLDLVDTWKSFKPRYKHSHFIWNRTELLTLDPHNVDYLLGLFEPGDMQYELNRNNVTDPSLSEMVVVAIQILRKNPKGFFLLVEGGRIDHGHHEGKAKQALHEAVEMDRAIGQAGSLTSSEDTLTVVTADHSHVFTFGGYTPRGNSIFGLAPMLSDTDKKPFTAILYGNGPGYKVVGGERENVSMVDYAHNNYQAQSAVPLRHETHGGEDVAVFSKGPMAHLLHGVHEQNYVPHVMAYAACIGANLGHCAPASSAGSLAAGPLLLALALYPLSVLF

Hexokinase HKDC1 = biological target: T2, Hexokinase HKDC1 (Homo sapiens, UniProt Q2TB90); assay: activation of HKDC1 glucose phosphorylation – biochemical, W721R variant, dose response (AID 504730); assay type: functional
T2 sequence (Q2TB90 whole entry): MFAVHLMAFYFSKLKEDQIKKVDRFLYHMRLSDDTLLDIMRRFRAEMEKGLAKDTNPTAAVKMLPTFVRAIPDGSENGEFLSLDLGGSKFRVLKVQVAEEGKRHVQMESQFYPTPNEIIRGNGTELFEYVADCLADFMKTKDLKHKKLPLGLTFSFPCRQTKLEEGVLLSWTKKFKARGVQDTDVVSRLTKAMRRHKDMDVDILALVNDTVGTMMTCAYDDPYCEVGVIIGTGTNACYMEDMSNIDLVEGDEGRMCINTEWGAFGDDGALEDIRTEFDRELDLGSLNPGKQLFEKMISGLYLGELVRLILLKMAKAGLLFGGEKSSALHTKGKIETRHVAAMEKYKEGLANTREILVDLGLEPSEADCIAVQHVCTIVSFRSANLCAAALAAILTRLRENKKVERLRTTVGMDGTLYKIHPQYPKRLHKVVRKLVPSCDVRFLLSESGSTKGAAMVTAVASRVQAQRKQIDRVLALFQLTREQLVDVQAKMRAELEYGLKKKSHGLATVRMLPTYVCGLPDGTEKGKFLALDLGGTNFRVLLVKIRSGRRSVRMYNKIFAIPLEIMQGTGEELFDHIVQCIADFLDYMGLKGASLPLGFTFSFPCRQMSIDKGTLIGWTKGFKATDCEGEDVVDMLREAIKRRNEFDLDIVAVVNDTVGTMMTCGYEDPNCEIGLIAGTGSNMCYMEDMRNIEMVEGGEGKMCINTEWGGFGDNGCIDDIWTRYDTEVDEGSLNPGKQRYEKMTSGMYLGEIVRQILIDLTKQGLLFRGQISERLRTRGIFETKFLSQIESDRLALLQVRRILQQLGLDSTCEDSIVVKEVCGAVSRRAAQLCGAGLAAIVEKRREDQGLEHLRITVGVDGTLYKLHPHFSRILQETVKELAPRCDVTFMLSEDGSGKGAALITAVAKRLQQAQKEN

Hexokinase-1 = biological target: T3, Hexokinase-1 (Homo sapiens, UniProt P19367); assay: HK1 enzyme activation by HKDC1 hits – biochemical, selectivity assay for HKDC1 activator project, dose response (AID 504762); assay type: functional
T3 sequence (P19367 whole entry): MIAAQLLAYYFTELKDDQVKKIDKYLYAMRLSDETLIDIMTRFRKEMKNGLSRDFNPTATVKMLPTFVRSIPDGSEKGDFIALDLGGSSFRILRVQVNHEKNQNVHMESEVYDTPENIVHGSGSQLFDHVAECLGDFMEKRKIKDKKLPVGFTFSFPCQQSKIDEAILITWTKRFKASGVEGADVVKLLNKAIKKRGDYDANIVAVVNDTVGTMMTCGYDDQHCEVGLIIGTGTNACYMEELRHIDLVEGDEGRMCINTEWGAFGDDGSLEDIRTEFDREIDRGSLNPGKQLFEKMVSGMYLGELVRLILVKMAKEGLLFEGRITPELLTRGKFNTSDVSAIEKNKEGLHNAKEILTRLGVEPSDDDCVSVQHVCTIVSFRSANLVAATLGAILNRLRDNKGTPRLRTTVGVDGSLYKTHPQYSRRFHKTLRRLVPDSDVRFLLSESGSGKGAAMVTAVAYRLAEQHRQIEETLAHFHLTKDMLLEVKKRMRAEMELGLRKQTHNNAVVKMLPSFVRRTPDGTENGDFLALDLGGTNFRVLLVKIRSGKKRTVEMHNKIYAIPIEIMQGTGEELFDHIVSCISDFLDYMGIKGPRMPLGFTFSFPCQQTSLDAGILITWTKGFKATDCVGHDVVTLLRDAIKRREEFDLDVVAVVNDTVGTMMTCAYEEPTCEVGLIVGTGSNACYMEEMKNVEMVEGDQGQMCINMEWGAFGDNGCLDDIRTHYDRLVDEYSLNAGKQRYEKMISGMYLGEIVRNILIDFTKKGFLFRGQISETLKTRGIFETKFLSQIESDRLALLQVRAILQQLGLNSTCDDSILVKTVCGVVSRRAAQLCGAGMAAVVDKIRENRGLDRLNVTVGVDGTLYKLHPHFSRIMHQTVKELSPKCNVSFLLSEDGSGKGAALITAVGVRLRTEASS

Ion channel NompC = Ion channel NompC (Danio rerio, UniProt Q7T1G6); assay: Dose response cell-based high-throughput screening assay for agonists of the transient receptor potential channel N1 (TRPN1). [Related pubchem assays (depositor defined):AID1424, AID1448]; assay type: functional
Mucolipin-3 = biological target: T4, Mucolipin-3 (Homo sapiens, UniProt Q8TDD5); assay: Fluorescence counterscreen assay for […] agonists: dose response cell-based high-throughput screening assay to identify agonists of the transient receptor potential channel ML3 (TRPML3). [Related pubchem assays: 1424, 1448 ]; assay type: functional
T4 sequence (Q8TDD5 whole entry): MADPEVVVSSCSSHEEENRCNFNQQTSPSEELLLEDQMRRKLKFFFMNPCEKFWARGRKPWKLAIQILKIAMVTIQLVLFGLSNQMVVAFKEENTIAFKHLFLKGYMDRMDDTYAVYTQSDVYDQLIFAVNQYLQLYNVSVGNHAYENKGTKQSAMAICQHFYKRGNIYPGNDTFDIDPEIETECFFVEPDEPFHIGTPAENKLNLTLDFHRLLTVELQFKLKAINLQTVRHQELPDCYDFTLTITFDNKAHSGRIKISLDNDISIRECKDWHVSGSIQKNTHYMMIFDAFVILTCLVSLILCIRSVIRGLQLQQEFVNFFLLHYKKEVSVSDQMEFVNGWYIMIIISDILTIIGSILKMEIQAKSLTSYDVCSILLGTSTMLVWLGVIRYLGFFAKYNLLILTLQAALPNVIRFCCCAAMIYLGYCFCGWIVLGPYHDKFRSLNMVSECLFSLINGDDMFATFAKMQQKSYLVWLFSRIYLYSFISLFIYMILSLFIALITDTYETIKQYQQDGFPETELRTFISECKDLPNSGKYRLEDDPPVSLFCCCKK

[3] = biological target: T5, Dual specificity protein phosphatase 3 (Homo sapiens, UniProt P51452); assay: SAR VHR1 absorbance Assay for In Vitro dose response studies. [Related pubchem assays (depositor defined):AID1654, AID1661, AID1878, AID1992, AID2004]
[4] = biological target: T5, Dual specificity protein phosphatase 3; assay: SAR VHR1 Fluorescent Assay for In Vitro dose response studies. [Related pubchem assays (depositor defined):AID1654, AID1661, AID1878, AID1992, AID2004, AID2070, AID2085]; assay type: functional
[5] = biological target: T6, Tyrosine-protein phosphatase non-receptor type 7 (Homo sapiens, UniProt P35236); assay: redox-active compounds inhibiting HePTP phosphatase – biochemical, fluorescence, mechanism study (AID 2068); assay type: functional
T6 sequence (P35236 whole entry): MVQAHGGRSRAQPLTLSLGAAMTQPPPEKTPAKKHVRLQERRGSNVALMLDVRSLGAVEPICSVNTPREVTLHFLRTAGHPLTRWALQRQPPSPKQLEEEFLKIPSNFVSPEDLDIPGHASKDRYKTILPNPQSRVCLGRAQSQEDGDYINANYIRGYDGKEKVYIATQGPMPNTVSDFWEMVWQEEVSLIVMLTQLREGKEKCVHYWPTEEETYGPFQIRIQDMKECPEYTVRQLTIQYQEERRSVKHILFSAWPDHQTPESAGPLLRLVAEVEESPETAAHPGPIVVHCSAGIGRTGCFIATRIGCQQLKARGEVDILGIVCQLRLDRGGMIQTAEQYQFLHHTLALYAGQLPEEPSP

[6] = biological target: T5, Dual specificity protein phosphatase 3; assay: SAR VHR1 Fluorescent Assay for In Vitro dose response studies Set 2. [Related pubchem assays (depositor defined):AID1654, AID1661, AID1878]; assay type: functional
[7] = biological target: T7, Dual specificity protein phosphatase 6 (Rattus norvegicus, UniProt Q64346); assay type: functional;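 further: confirmatory in vitro dose-response testing of MKP-3 inhibition; recombinant His-tagged MKP-3 made in E. coli BL21 with OMFP substrate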
T7 sequence (Q64346 whole entry): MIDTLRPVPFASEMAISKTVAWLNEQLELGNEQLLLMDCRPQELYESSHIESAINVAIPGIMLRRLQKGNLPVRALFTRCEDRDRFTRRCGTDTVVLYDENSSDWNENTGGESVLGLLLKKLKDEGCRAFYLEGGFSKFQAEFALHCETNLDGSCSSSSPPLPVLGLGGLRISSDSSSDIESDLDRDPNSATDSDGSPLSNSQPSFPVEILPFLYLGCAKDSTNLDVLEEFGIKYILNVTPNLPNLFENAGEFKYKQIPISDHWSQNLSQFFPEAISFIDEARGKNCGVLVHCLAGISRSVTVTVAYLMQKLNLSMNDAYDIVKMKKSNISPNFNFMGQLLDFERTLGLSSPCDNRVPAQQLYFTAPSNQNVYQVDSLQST

[8] = biological target: T8, Intestinal-type alkaline phosphatase (Homo sapiens, UniProt P09923); assay: Dose Response confirmation of uHTS hits from a small molecule inhibitors of human intestinal alkaline phosphatase via a luminescent assay. [Related pubchem assays (depositor defined):AID2544, AID2574]; assay type: functional
[9] = biological target: T8, Intestinal-type alkaline phosphatase; assay: human intestinal alkaline phosphatase activators, dose response, biochemical, luminescence, uHTS hits (AID 463120); assay type: functional
[10] = Trypanosoma cruzi growth suppression in host cells – NIH3T3 host cells, beta-gal luminescence, confirmation (AID 2044); assay type: functional, cell-based;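 further: intracellular parasites grown in NIH/3T3 mouse fibroblasts as host cells; luminescent beta-galactosidase reporter signal from transgenic T. cruzi replicating inside host cells; inhibitors lower the luminescence signal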
[11] = NIH3T3 cell viability loss – ATP luminescence, mouse fibroblasts, counter-screen, dose response (AID 2010); assay type: functional, cell-based;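 further: cells exposed to compound for about 90 hours before reading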
[12] = biological target: Induced myeloid leukemia cell differentiation protein Mcl-1 (Homo sapiens, UniProt Q07820); assay type: functional
[13] = Luminescence Cell-Based Dose Retest to Confirm Inhibitors of Cancer Stem Cells. [Related pubchem assays (depositor defined):AID2717, AID2721]; assay type: functional; conditions: Homo sapiens
[14] = biological target: DNA damage-inducible transcript 3 protein (Mus musculus, UniProt P35639); assay type: functional, Cricetulus griseus
Cysteine protease ATG4B = biological target: T9, Cysteine protease ATG4B (Homo sapiens, UniProt Q9Y4P1); assay type: functional;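 further: Fluorescence-based dose-response confirmation assay measuring inhibition of ATG4B activity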
T9 sequence (Q9Y4P1 whole entry): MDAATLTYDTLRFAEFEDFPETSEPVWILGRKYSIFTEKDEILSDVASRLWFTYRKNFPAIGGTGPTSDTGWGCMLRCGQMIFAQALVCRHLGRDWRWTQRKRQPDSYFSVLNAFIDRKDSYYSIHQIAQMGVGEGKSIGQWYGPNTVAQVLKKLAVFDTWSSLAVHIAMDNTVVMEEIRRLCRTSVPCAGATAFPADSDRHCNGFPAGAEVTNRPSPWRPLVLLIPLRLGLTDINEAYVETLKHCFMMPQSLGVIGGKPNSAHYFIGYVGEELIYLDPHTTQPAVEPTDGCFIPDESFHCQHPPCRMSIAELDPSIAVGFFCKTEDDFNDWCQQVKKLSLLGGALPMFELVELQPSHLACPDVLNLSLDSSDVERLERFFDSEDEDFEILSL

Phospholipase A2 = Phospholipase A2 (Homo sapiens, UniProt P04054); assay type: functional;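 further: confirmatory dose-response counterscreen on phospholipase A2, testing hits that came from an ultra-high-throughput screen for ATG4B inhibitors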
INS1 = assay: INS-1E survival protection against cytokine death – cell-based, luminescence, retest, dose response (AID 449756); assay type: functional; conditions: Rattus norvegicus;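 further: cell death triggered by IL-1 beta plus TNF-alpha plus IFN-gamma mixture; protective hits raise ATP signal compared with cytokine alone wells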

T5 sequence (P51452 whole entry): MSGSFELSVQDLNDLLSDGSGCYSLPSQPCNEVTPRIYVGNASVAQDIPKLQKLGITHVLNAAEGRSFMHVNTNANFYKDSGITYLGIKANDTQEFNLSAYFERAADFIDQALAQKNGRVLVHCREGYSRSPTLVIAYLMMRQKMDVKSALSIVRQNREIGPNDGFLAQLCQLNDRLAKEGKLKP
T8 sequence (P09923 whole entry): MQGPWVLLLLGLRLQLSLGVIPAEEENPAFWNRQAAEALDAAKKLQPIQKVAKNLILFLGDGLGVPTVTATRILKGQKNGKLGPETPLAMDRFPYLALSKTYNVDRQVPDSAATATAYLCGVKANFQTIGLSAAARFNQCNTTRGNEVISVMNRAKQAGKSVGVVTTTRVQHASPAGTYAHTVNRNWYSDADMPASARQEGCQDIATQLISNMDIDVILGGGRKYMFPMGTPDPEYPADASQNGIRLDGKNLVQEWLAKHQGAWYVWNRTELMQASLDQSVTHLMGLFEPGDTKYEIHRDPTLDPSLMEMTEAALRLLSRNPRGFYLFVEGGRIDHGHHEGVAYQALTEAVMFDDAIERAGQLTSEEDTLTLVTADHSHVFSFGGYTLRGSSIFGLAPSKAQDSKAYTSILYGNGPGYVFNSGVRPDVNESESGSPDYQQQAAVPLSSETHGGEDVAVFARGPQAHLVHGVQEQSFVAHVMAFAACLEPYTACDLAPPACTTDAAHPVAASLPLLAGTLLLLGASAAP
Chain of Induced myeloid leukemia cell differentiation protein Mcl-1 (Q07820 whole entry): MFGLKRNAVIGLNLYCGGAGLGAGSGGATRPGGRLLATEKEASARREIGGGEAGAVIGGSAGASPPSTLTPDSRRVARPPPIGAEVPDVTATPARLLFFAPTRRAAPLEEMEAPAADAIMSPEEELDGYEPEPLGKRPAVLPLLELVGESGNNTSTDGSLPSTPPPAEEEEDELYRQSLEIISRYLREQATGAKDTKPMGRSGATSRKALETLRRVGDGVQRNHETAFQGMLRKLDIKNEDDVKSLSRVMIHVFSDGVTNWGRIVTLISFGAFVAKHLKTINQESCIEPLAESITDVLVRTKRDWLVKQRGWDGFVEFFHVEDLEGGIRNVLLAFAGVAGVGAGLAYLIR
Chain of DNA damage-inducible transcript 3 protein (P35639 whole entry): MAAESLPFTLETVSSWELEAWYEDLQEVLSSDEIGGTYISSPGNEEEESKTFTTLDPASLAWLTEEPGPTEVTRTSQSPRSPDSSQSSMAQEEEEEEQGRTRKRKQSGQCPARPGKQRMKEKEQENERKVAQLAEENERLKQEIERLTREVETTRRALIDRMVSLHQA
Chain of Ion channel NompC (Q7T1G6 whole entry): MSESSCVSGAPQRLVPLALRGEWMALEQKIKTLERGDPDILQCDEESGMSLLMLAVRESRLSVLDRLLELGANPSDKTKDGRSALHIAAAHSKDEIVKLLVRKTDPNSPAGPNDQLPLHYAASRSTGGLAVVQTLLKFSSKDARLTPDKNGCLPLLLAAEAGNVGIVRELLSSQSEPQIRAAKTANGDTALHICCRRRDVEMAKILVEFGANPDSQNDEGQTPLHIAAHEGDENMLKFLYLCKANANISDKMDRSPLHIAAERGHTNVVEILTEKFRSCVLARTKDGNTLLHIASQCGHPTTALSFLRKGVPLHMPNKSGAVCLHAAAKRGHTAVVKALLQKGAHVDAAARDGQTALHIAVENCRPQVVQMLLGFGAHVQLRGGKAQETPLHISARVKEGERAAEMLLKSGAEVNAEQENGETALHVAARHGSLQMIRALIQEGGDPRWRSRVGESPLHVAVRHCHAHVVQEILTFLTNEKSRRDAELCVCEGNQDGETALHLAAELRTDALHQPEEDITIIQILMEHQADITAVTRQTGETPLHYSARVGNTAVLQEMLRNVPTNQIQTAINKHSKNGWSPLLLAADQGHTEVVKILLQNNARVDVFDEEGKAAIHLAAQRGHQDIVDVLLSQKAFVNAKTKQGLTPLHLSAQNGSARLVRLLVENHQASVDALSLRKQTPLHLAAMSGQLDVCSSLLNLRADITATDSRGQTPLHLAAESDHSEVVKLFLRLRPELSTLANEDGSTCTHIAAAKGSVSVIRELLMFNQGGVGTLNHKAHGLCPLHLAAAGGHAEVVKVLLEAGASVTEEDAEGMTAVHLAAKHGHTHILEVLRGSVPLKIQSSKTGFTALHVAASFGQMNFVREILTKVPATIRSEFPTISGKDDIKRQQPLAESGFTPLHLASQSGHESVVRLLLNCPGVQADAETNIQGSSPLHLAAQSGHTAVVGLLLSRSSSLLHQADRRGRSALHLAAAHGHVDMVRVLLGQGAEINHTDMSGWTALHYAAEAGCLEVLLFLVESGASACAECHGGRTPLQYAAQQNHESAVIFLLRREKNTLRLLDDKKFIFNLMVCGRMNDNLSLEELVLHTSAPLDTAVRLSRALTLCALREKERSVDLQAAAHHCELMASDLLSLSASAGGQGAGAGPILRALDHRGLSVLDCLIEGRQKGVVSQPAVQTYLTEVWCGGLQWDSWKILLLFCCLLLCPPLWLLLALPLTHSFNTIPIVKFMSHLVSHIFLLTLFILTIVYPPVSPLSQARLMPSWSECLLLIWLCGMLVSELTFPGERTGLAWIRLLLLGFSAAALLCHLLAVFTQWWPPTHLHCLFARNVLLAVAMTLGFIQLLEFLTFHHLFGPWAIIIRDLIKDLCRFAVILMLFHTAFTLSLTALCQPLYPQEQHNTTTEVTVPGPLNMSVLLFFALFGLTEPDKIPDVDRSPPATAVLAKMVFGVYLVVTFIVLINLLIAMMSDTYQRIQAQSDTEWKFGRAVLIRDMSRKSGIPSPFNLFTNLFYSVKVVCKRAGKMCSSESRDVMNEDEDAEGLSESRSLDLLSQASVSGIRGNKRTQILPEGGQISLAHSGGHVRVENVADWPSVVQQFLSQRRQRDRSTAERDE
Chain of Glyceraldehyde-3-phosphate dehydrogenase (P04406 whole entry): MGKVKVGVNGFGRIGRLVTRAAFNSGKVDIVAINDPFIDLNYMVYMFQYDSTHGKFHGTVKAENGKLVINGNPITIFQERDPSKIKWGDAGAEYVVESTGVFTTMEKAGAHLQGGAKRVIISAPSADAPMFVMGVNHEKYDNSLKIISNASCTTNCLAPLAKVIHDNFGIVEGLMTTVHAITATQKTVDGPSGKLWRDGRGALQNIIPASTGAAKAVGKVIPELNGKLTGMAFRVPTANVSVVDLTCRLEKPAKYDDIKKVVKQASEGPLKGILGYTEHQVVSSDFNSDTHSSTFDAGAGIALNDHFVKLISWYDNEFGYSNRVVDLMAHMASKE
Chain of Phospholipase A2 (P04054 whole entry): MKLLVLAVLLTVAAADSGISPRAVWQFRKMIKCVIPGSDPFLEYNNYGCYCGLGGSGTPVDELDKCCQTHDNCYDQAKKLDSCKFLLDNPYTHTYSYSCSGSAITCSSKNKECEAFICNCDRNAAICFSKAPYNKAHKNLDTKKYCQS

## O=S(=O)(Nc1cnc2ccccc2c1)c1ccc(F)cc1
[1]
  IC50: > 100 µM (not active)
[2]
  IC50: > 100 µM (inactive)

## CC1(C)C(=O)Nc2ccccc2N1C(=O)COC(=O)c1cc(Cl)cc(Cl)c1
Hexokinase HKDC1
  EC50: 49.1 µM (inactive)
Hexokinase-1
  EC50: 65.2 µM (inactive)

## CCOC(=O)C1CN(S(=O)(=O)c2ccc(C)cc2)CCN1S(=O)(=O)c1ccc(C)cc1 (stereo unspecified)
Ion channel NompC
  EC50: > 29.9 µM (inactive)
Mucolipin-3
  EC50: > 29.9 µM (not active)

## CNS(=O)(=O)c1cccc(C(=O)NC2CCSc3ccccc32)c1 (stereo unspecified)
[3]
  IC50: > 100 µM (inactive)
[4]
  IC50: > 100 µM (inactive)
[5]
  IC50: > 100 µM (inactive)
[6]
  IC50: > 100 µM (inactive)
[7]
  IC50: > 100 µM (inactive)

## CN(Cc1ccccc1)C(=O)Nc1ccc(Cl)cc1
[8]
  IC50: > 100 µM (inactive)
[9]
  EC50: > 100 µM (inactive)

## Cc1ccccc1/C=N/Nc1ccnc2cc(Cl)ccc12
[10]
  EC50: 1.07 µM (active)
[11]
  EC50: > 60 µM (not active)
[12]
  IC50: 5.13 µM (active)
[13]
  AC50: 3.62 µM (active)
[14]
  Absolute IC50 (CHOP): 10 µM
Cysteine protease ATG4B
  IC50: 14.7 µM (active)
Phospholipase A2
  IC50: 11.4 µM (active)
INS1
  AC50: 5.39 µM (active)
